Assay results published in patent publication US9180077B2, “Green tea extracts of improved bioavailability” (Nestec S.A., priority 2009, dated 2015).

Assay: Stability study of green tea catechins: incubation in Na-Pi buffer pH 7.4 at 37° C., HPLC
Type: physicochemical
Procedure: Samples were prepared according to the following method. Briefly, each sample was treated with acetic acid (30% final concentration) for 30 min and then added to an aqueous solution containing 10% acetonitrile, 0.5 mg/mL EDTA and 0.5 mg/mL ascorbic acid. The mix was then centrifuged for 30 min at 14′000×g and the supernatant analysed by HPLC. Following this protocol allows the complete recovery of all catechins.
Green tea catechins were determined by reverse phase HPLC using an analytical method based on the ISO FDIS 14502-2 method. The HPLC system used was a 1100 series Hewlett-Packard (Geneva, Switzerland) model equipped with an ultraviolet-visible photodiode array and a fluorimetric detector. Catechins were detected by UV absorption at 280.4 nm except for catechins and epicatechin that were detected by fluorescence (excitation: 280 nm; emission: 310 nm). Samples (10 μl) were separated on a Zorbax RX—C18 column (4.6 mm internal diameter×250 mm length, Agilent technologies). Flow rate was 1.0 mL/min.
Sample concentration of green tea catechins (C, EC, EgC, EgCg, ECg) were calculated based on the corresponding calibration curve and reported as % of the initial value (sample at t0). Since caffeine, endogenous to green tea samples, is stable under the selected assay conditions, it was used as internal standard for all calculations. […]

protection of catechins (0.2 mM, at least for 2 h of incubation, data not shown): a certain protection
vitamin C concentration at which the plateau of stabilisation is reached (stabilisation during 6 h, GTE 0.1%, pH 7.4, 37° C): 2.5 mM
SMILES: O=C1O[C@H]([C@@H](O)CO)C(O)=C1O [vitamin C, ascorbic acid]
